Results as given in ChEMBL document CHEMBL1130473, “Synthesis and in vitro antibacterial activities of novel conformationally restricted hygromycin a analogues” (1997).
In brackets after ≈: the same amount, converted by molar mass.

Legend:
Format in all cases: functional
Pasteurella multocida = test: Compound was tested for minimum inhibitory concentration against Pasteurella multocida
[1] = tested on: Brachyspira hyodysenteriae; test: Compound was tested for minimum inhibitory concentration against Serpulina hyodysenteriae
[2] = tested on: Brachyspira hyodysenteriae; test: Compound was tested for minimum inhibitory concentration against S. hyodysenteriae; 6.25-12.5

Row | MIC (Pasteurella multocida) | MIC [1] | MIC [2] | SMILES
1 | > 200 µg/mL | > 200 µg/mL |  | C=CCOc1ccc2c(c1O)CCC(C(=O)N[C@@H]1[C@H](O)[C@@H](O)[C@H]3OCO[C@H]3[C@@H]1O)=C2
2 | 6.25 µg/mL (≈ 14.9 µM) |  |  | CCCC1COc2cc(/C=C(\C)C(=O)N[C@@H]3[C@H](O)[C@@H](O)[C@H]4OCO[C@H]4[C@@H]3O)ccc21 (some centres undefined)
3 | 50 µg/mL (≈ 120 µM) |  |  | CC/C=C1\COc2cc(/C=C(\C)C(=O)N[C@@H]3[C@H](O)[C@@H](O)[C@H]4OCO[C@H]4[C@@H]3O)ccc21

More lines, now with the values behind:

Row | SMILES | MIC (Pasteurella multocida) | MIC [1] | MIC [2]
4 | CCCc1coc2cc(/C=C(\C)C(=O)N[C@@H]3[C@H](O)[C@@H](O)[C@H]4OCO[C@H]4[C@@H]3O)ccc12 | 50 µg/mL (≈ 120 µM) |  | 
5 | C=CCOc1cc2c(cc1O)C=C(C(=O)N[C@@H]1[C@H](O)[C@@H](O)[C@H]3OCO[C@H]3[C@@H]1O)CCC2 | 25 µg/mL (≈ 57.7 µM) | 25 µg/mL (≈ 57.7 µM) | 
6 | C=CCOc1cc2c(cc1O)C=C(C(=O)N[C@@H]1[C@H](O)[C@@H](O)[C@H]3OCO[C@H]3[C@@H]1O)C2 | > 200 µg/mL | > 200 µg/mL | 
7 | C=CCOc1cc2c(cc1O)C=C(C(=O)N[C@@H]1[C@H](O)[C@@H](O)[C@H]3OCO[C@H]3[C@@H]1O)CC2 | 12.5 µg/mL (≈ 29.8 µM) |  | 6.25 µg/mL (≈ 14.9 µM)
8 | C=CCOc1cc2ccc(C(=O)N[C@@H]3[C@H](O)[C@@H](O)[C@H]4OCO[C@H]4[C@@H]3O)cc2cc1O | 50 µg/mL (≈ 120 µM) | 50 µg/mL (≈ 120 µM) | 
9 | CC/C=C1/COc2cc(/C=C(\C)C(=O)N[C@@H]3[C@H](O)[C@@H](O)[C@H]4OCO[C@H]4[C@@H]3O)ccc21 | 50 µg/mL (≈ 120 µM) |  | 
